Experimental data: patent EP0267740A1, “Naphthyridine and pyridopyrazine compounds and pharmaceutical usage thereof” (SCHERING CORPORATION, priority 1986, dated 1988)

Assays:
[1] = Reversed Passive Arthus Reaction (RPAR) paw technique, anti-inflammatory test; type: in vivo, Male Lewis inbred albino rats; conditions: Oral Dose 25 mg/kg by gavage in methyl cellulose, rat paw volume 2 hours post-challenge
Experimental: The compounds of this invention are also effective for the treatment of inflammation; thus they are useful for the treatment of arthritis, bursitis, tendonitis, gout and other inflammatory conditions. […] The potency of the compounds described and claimed herein for treatment of inflammatory conditions is determined using indomethacin as the standard.
Male Lewis inbred albino rats weighing 180-220 grams obtained from Charles River Breeding Laboratories are used in these experiments. The rats are housed 3 animals/cage and food and water are allowed ad libitum. The animals are numbered 1-3 in each cage and color marked for identification purposes.
All reagents and drugs are prepared just prior to the study. Crystallized and lyophilized bovine serum albumin (BSA), obtained from Sigma Chemical Company, is solubilized without shaking in cold sterile pyrogen free saline (10 mg/ml). […]
Groups of animals (6/group) are dosed with drug in MC by gavage one hour prior to sensitization with BSA. […] The volume of mercury displaced is converted to weight and recorded. […] Paw volumes are also recorded with a plethysmograph during the development of the inflammation at 2 and 4 hours post-challenge, and the results are shown in Table B below.

[2] = tested on: release of SRS-A from sensitized guinea pig lung fragments; assay: Measurement of SRS-A release from sensitized guinea pig lung fragments after antigen (ovalbumin) challenge; type: cell-based; conditions: Dose (Molar Conc.) 1 x 10^-5; lung fragments incubated with compound 12 min at 37°C, challenge with 20µg ovalbumin/ml
Experimental: The anti-allergy property of the compounds of this invention is evaluated by measuring the inhibition of the release of the mediator SRS-A (slow reacting substance of anaphylaxis) from sensitized guinea pig lung fragments after antigen challenge.
The release of SRS-A and histamine was studied in lungs from actively sensitized guinea pigs. Male Hartley guinea pigs (250-300 g, obtained from Charles River or Dutchland Farms) were sensitized with 5 mg ovalbumin injected intraperitoneally and 5 mg subcutaneously in 1 ml saline on day one, and 5 mg ovalbumin injected intraperitoneally on day four. The sensitized animals were used 3-4 weeks later.
Sensitized guinea pigs were killed by a blow to the head and the lungs removed and cleaned of visable connective tissue, trachea and large blood vessels. The lungs from individual animals were sliced into fragments approximately 1 mm in thickness using a McIlwain chopper and then washed with oxygenated Tyrode's buffer. Weighed aliquots (approximately 400 mg wet weight) of lung were transferred into vials containing 2 ml of fresh Tyrode's solution and incubated in the presence or absence of test compound for 12 min at 37°C followed by challenge of the tissue with 20µg ovalbumin/ml (final concentration). After an additional 15 min incubation, the vials were cooled to 4°C and 1.5 ml of clear supernatant media was removed and mixed with 6 ml of cold 100% ethanol. This mixture was thoroughly vortexed and kept at -15°C for 30 min to allow precipitation of protein. The samples were then centrifuged at 1000 x g for 15 min at 2°C and the clear supernatant fluid removed into polyethylene tubes and taken to dryness at 50°C under a stream of N₂ gas. The samples were stored at -70°C until assayed for SRS-A by bioassay or radioimmune assay.

Compound	% Inhibition 2 hrs. [1] [%]	% Inhibition (INHIBITION OF SRS-A RELEASE FROM GUINEA PIG LUNG) [2] [%]
CCCCc1c(O)c2cccnc2n(-c2cccnc2)c1=O	64	33
O=C1CCN(c2ccccc2)N1 [1-phenyl-3-pyrazolidinone, reference compound]		41
CCCCc1c(O)c2cccnc2n(-c2ccc3c(c2)CCC3)c1=O [3-(n-BUTYL)-4-HYDROXY-1-(5-INDANYL)-1,8-NAPHTHYRIDIN-2(1H)-ONE]	23	55
